Experimental data from the supplement of paper PMC10307832.

What was measured:
Assay in all cases: relative viability (nuclei count vs DMSO), 5 days (fraction); higher = more cells survive
[1] = compound: O[C@@H](COc1cccc2ncccc12)CN1CCN([C@@H]2c3ccccc3[C@@H]3[C@H](c4ccccc42)C3(F)F)CC1 [Zosuquidar] + O=C(c1cc(Cc2n[nH]c(=O)c3ccccc23)ccc1F)N1CCN(C(=O)C2CC2)CC1 [Olaparib] (partner 8 µM)
How it was run: (§1)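 After 5 days of treatment, lung cancer cells in 1536-well plates were fixed and stained in a single step (final 0.05% Triton X-100, 1% formaldehyde, 1 ug/ml Hoechst) and their nuclei counted on 4× images. Treatment had been applied by pin tool the day after seeding as one drug alone or as a fixed anchor-drug dose with five library-drug doses (not always all listed) in √10 steps. Relative viability is the nuclei count of treated wells divided by that of vehicle wells, and values are medians of duplicate plates.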

[2] = compound: C1=CC(=CC=C1NC(=S)NNC2=C(C=C(C=C2[N+](=O)[O-])C(F)(F)F)[N+](=O)[O-])F [Kobe2602] + Cc1nc(Nc2ncc(C(=O)Nc3c(C)cccc3Cl)s2)cc(N2CCN(CCO)CC2)n1 [Dasatinib] (partner 0.075 µM)
How it was run: as §1

[3] = compound: C1=CC(=CC=C1NC(=S)NNC2=C(C=C(C=C2[N+](=O)[O-])C(F)(F)F)[N+](=O)[O-])F [Kobe2602] + NC(=O)Nc1cc(-c2cccc(F)c2)sc1C(=O)N[C@H]1CCCNC1 [AZD7762] (partner 0.2 µM)
How it was run: as §1

[4] = compound: COc1cc2nccc(Oc3ccc(NC(=O)C4(C(=O)Nc5ccc(F)cc5)CC4)cc3)c2cc1OC [Cabozantinib] + NC(=O)Nc1cc(-c2cccc(F)c2)sc1C(=O)N[C@H]1CCCNC1 [AZD7762] (partner 0.2 µM)
How it was run: as §1

| Cell Line | relative viability ([1]; first compound 0.01 µM) | relative viability ([1]; first compound 0.03162 µM) | relative viability ([1]; first compound 0.1 µM) | relative viability ([1]; first compound 0.3162 µM) | relative viability ([1]; first compound 1 µM) | relative viability ([2]; first compound 0.2 µM) | relative viability ([2]; first compound 0.6325 µM) | relative viability ([2]; first compound 2 µM) | relative viability ([2]; first compound 6.325 µM) | relative viability ([2]; first compound 20 µM) | relative viability ([3]; first compound 0.2 µM) | relative viability ([3]; first compound 0.6325 µM) | relative viability ([3]; first compound 2 µM) | relative viability ([3]; first compound 6.325 µM) | relative viability ([3]; first compound 20 µM) | relative viability ([4]; first compound 0.02 µM) | relative viability ([4]; first compound 0.06325 µM) | relative viability ([4]; first compound 0.2 µM) | relative viability ([4]; first compound 0.6325 µM) | relative viability ([4]; first compound 2 µM) |
| --- | --- | --- | --- | --- | --- | --- | --- | --- | --- | --- | --- | --- | --- | --- | --- | --- | --- | --- | --- | --- |
| SK-MES-1 | 0.707 | 0.739 | 0.829 | 0.73 | 0.723 | 0.368 | 0.489 | 0.4 | 0.415 | 0.305 | – | – | – | – | – | – | – | – | – | – |
| HCC-366 | 0.314 | 0.377 | 0.415 | 0.324 | 0.324 | 0.613 | 0.632 | 0.597 | 0.646 | 0.727 | 0.22 | 0.269 | 0.312 | 0.183 | 0.421 | 0.34 | 0.358 | 0.21 | 0.209 | 0.275 |
| NCI-H3122 | 0.606 | 0.608 | 0.565 | 0.621 | 0.637 | 0.853 | 0.806 | 0.739 | 0.465 | 1 | 0.984 | 0.963 | 0.935 | 1.09 | 1.04 | 1.04 | 1.05 | 1.03 | 0.941 | 1.03 |
| COR-L 105 | 0.641 | 0.711 | 0.662 | 0.761 | 0.582 | 0.392 | 0.366 | 0.357 | 0.362 | 0.338 | – | – | – | – | – | – | – | – | – | – |
| 201T | 0.801 | 0.821 | 0.816 | 0.836 | 0.862 | 0.618 | 0.59 | 0.568 | 0.497 | 0.484 | 0.614 | 0.619 | 0.603 | 0.611 | 0.799 | 0.624 | 0.736 | 0.591 | 0.675 | 0.695 |
| NCI-H2228 | 0.626 | 0.51 | 0.61 | 0.64 | 0.936 | 0.415 | 0.549 | 0.504 | 0.502 | 0.529 | – | – | – | – | – | – | – | – | – | – |
| LC-2-ad | 0.689 | 0.67 | 0.693 | 0.716 | 0.719 | 0.562 | 0.642 | 0.454 | 0.636 | 0.686 | 0.822 | 0.879 | 0.85 | 0.833 | 0.828 | 0.766 | 0.98 | 0.79 | 0.902 | 0.866 |
| NCI-H2087 | 0.586 | 0.557 | 0.603 | 0.578 | 0.539 | 0.932 | 0.892 | 0.747 | 0.844 | 0.924 | 1.24 | 1.22 | 1.22 | 1.32 | 1.13 | 1.19 | 1.44 | 1.18 | 1.35 | 1.35 |
| LK-2 | 0.542 | 0.891 | 0.597 | 0.752 | 0.852 | 0.377 | 0.35 | 0.319 | 0.274 | 0.342 | 0.464 | 0.385 | 0.427 | 0.302 | 0.553 | – | 0.659 | 0.426 | 0.434 | 0.408 |
| H3255 | 0.549 | 0.559 | 0.558 | 0.553 | 0.541 | 0.532 | 0.42 | 0.408 | 0.356 | 0.349 | 0.868 | 0.956 | 0.868 | 0.775 | 0.864 | 0.938 | 1.14 | – | 0.911 | 0.923 |
| NCI-H2347 | 0.589 | 0.545 | 0.579 | 0.603 | 0.475 | 0.377 | 0.282 | 0.315 | 0.364 | 0.414 | 0.85 | 0.77 | 0.798 | 0.713 | 0.806 | 0.748 | 0.889 | 0.668 | 0.378 | 0.444 |
| CAL-12T | 0.739 | 0.715 | 0.741 | 0.793 | 0.706 | 0.462 | 0.388 | 0.413 | 0.474 | 0.376 | 0.644 | 0.736 | 0.568 | 0.609 | 0.506 | 0.714 | 0.682 | 0.641 | 0.651 | 0.567 |
| A-427 | 0.757 | 0.711 | 0.76 | 0.771 | 0.819 | 0.673 | 0.766 | 0.675 | 0.701 | 0.779 | 0.784 | 0.809 | 0.808 | 0.812 | 0.939 | 0.757 | 0.806 | 0.788 | 0.772 | 0.683 |
| HARA | 1.13 | 0.804 | 0.905 | 0.936 | 0.93 | 0.258 | 0.311 | 0.321 | 0.252 | 0.286 | 0.304 | 0.266 | 0.477 | 0.356 | 0.379 | 0.291 | 0.332 | – | 0.339 | 0.301 |
| NCI-H2170 | 0.546 | 0.629 | 0.612 | 0.63 | 0.562 | 0.632 | 0.544 | 0.496 | 0.558 | 0.592 | 0.9 | 0.875 | 0.869 | 0.823 | 0.886 | 0.871 | 0.937 | 0.779 | 0.864 | 1.01 |
| NCI-H1623 | – | – | – | – | – | 0.577 | 0.555 | 0.427 | 0.532 | 0.575 | – | – | – | – | – | – | – | – | – | – |
| NCI-H2023 | 0.498 | 0.549 | 0.52 | 0.485 | 0.477 | 0.532 | 0.583 | 0.547 | 0.484 | 0.394 | – | – | – | – | – | – | – | – | – | – |
| ABC-1 | 0.892 | 0.684 | 1.09 | 0.78 | 0.901 | 0.615 | 0.568 | – | 0.769 | 0.47 | 0.85 | 1 | 0.939 | 0.882 | 0.646 | 0.678 | 0.843 | 0.733 | 0.844 | 0.632 |
| IA-LM | 0.817 | 0.805 | 0.82 | 0.879 | 0.885 | – | – | – | – | – | – | – | – | – | – | – | – | – | – | – |
